Assay results as given in patent US20160347813A1, “GLUCAGON ANALOGUES” (Zealand Pharma A/S, priority 2011, published 2016).
Residues, ends and D or L forms follow the SMILES beside them.

Columns and labels:
human Glucagon-R = target: T1, human Glucagon-R (Homo sapiens, UniProt P47871); assay: Glucagon receptor efficacy assay (cAMP generation in HEK293 cells); assay type: cell-based; details: cAMP generation in HEK293 cells expressing Glucagon receptor
T1 construct: The DNA encoding the Glucagon-R or the GLP-1-R was amplified by PCR using primers encoding terminal restriction sites for subcloning; expressed in transfected cells
T1 sequence (P47871 26-477): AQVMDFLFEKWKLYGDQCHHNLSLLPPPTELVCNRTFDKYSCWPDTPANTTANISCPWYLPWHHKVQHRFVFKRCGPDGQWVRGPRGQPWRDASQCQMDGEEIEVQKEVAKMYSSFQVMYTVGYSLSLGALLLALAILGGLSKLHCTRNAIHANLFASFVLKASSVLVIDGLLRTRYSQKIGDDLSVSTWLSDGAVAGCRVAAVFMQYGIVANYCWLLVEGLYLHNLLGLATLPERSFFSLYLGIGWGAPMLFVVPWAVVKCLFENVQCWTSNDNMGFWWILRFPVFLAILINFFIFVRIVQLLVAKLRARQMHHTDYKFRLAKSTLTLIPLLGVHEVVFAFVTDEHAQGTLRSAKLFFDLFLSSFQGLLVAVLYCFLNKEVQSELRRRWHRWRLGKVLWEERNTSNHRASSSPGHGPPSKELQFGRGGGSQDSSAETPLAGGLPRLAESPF
Description: (§1) The DNA encoding the Glucagon-R or the GLP-1-R was amplified by PCR using primers encoding terminal restriction sites for subcloning. The 5′-end primers additionally encoded a near Kozak consensus sequence to ensure efficient translation. The fidelity of the DNA encoding the Glucagon-R and the GLP-1-R was confirmed by DNA sequencing. The PCR products encoding the Glucagon-R or the GLP-1-R were subcloned into a mammalian expression vector containing a neomycin (G418) resistance marker. The mammalian expression vectors encoding the Glucagon-R or the GLP-1-R were transfected into HEK293 cells by a standard calcium phosphate transfection method. 48 hr after transfection cells were seeded for limited dilution cloning and selected with 1 mg/ml G418 in the culture medium. Three weeks later 12 surviving colonies of Glucagon-R and GLP-1-R expressing cells were picked, propagated and tested in the Glucagon-R and GLP-1-R efficacy assays as described below. One Glucagon-R expressing clone and one GLP-1-R expressing clone were chosen for compound profiling.
(§2) On the day of analysis, growth medium was removed and the cells washed once with 200 μl Tyrode buffer. Cells were incubated in 100 μl Tyrode buffer containing increasing concentrations of test peptides, 100 μM IBMX, and 6 mM glucose for up 15 min at 37° C. The reaction was stopped by addition of 25 μl 0.5 M HCl and incubated on ice for 60 min. The cAMP content was estimated using the FlashPlate® cAMP kit from Perkin-Elmer according to manufacturer instructions. EC50 and relative efficacies compared to reference compounds (glucagon and GLP-1) were estimated by computer aided curve fitting.

human GLP-1-R = target: T2, human GLP-1-R (Homo sapiens, UniProt P43220); assay: GLP-1 receptor efficacy assay (cAMP generation in HEK293 cells); assay type: cell-based; details: cAMP generation in HEK293 cells expressing GLP-1 receptor
T2 construct: The DNA encoding the Glucagon-R or the GLP-1-R was amplified by PCR using primers encoding terminal restriction sites for subcloning; expressed in transfected cells
T2 sequence (P43220 24-463): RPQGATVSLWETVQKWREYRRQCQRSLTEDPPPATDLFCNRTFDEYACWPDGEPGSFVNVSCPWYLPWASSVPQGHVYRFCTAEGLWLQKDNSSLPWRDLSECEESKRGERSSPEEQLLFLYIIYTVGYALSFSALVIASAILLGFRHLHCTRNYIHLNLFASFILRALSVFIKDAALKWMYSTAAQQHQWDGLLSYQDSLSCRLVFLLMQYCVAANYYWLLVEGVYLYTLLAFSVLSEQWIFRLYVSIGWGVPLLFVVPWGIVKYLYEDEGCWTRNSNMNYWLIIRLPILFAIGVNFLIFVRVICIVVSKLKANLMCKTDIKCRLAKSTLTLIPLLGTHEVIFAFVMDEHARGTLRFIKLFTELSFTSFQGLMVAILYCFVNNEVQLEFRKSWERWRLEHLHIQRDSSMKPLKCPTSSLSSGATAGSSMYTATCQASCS
Description: as §1, §2

EC50 (human Glucagon-R)	EC50 (human GLP-1-R)	Compound
60 pM	60 pM	CCCCCCCCCCCCCCCC(=O)N[C@@H](CCC(=O)NCCCC[C@H](NC(=O)[C@H](CCC(=O)O)NC(=O)[C@H](CC(=O)O)NC(=O)[C@H](CC(C)C)NC(=O)[C@H](Cc1ccc(O)cc1)NC(=O)[C@H](CCCNC(=N)N)NC(=O)[C@H](CO)NC(=O)[C@H](Cc1ccc(O)cc1)NC(=O)[C@H](CC(=O)O)NC(=O)[C@H](CO)NC(=O)[C@@H](NC(=O)[C@H](Cc1ccccc1)NC(=O)[C@@H](NC(=O)CNC(=O)[C@H](CCC(N)=O)NC(=O)[C@H](CO)NC(=O)[C@@H](N)Cc1c[nH]cn1)[C@@H](C)O)[C@@H](C)O)C(=O)N[C@@H](CCCNC(=N)N)C(=O)N[C@@H](C)C(=O)N[C@@H](CCCNC(=N)N)C(=O)N[C@@H](CC(=O)O)C(=O)N[C@@H](Cc1ccccc1)C(=O)N[C@H](C(=O)N[C@@H](CCC(=O)O)C(=O)N[C@@H](Cc1c[nH]c2ccccc12)C(=O)N[C@@H](CC(C)C)C(=O)N[C@@H](CC(C)C)C(=O)N[C@@H](CO)C(=O)N[C@@H](C)C(N)=O)[C@@H](C)CC)C(=O)O [Compound 7] (HELM PEPTIDE1{H.S.Q.G.T.F.T.S.D.Y.S.R.Y.L.D.E.K.R.A.R.D.F.I.E.W.L.L.S.A.[am]}|PEPTIDE2{[CCCCCCCCCCCCCCCC(=O)[*:2]].[gGlu]}$PEPTIDE1,PEPTIDE2,17:R3-2:R2$$$V2.0)
90 pM	–	CCCCCCCCCCCCCCCC(=O)N[C@@H](CCC(=O)NCCCC[C@H](NC(=O)[C@H](CCC(=O)O)NC(=O)[C@H](CC(=O)O)NC(=O)[C@H](CC(C)C)NC(=O)[C@H](Cc1ccc(O)cc1)NC(=O)[C@H](CCCNC(=N)N)NC(=O)[C@H](CO)NC(=O)[C@H](Cc1ccc(O)cc1)NC(=O)[C@H](CC(=O)O)NC(=O)[C@H](CO)NC(=O)[C@@H](NC(=O)[C@H](Cc1ccccc1)NC(=O)[C@@H](NC(=O)CNC(=O)[C@H](Cc1c[nH]cn1)NC(=O)[C@@H](CO)NC(=O)[C@@H](N)Cc1c[nH]cn1)[C@@H](C)O)[C@@H](C)O)C(=O)N[C@@H](CCCNC(=N)N)C(=O)N[C@@H](C)C(=O)N[C@@H](CCCNC(=N)N)C(=O)N[C@@H](CC(=O)O)C(=O)N[C@@H](Cc1ccccc1)C(=O)N[C@H](C(=O)N[C@@H](CCC(=O)O)C(=O)N[C@@H](Cc1c[nH]c2ccccc12)C(=O)N[C@@H](CC(C)C)C(=O)N[C@@H](CC(C)C)C(=O)N[C@@H](CO)C(=O)N[C@@H](C)C(N)=O)[C@@H](C)CC)C(=O)O [Compound 11] (HELM PEPTIDE1{H.[dS].H.G.T.F.T.S.D.Y.S.R.Y.L.D.E.K.R.A.R.D.F.I.E.W.L.L.S.A.[am]}|PEPTIDE2{[CCCCCCCCCCCCCCCC(=O)[*:2]].[gGlu]}$PEPTIDE1,PEPTIDE2,17:R3-2:R2$$$V2.0)
90 pM	–	CCCCCCCCCCCCCCCC(=O)N[C@@H](CCC(=O)NCCCC[C@H](NC(=O)[C@H](CCC(=O)O)NC(=O)[C@H](CC(=O)O)NC(=O)[C@H](CC(C)C)NC(=O)[C@H](Cc1ccc(O)cc1)NC(=O)[C@H](CCCCN)NC(=O)[C@H](CO)NC(=O)[C@H](Cc1ccc(O)cc1)NC(=O)[C@H](CC(=O)O)NC(=O)[C@H](CO)NC(=O)[C@@H](NC(=O)[C@H](Cc1ccccc1)NC(=O)[C@@H](NC(=O)CNC(=O)[C@H](Cc1c[nH]cn1)NC(=O)[C@H](CO)NC(=O)[C@@H](N)Cc1c[nH]cn1)[C@@H](C)O)[C@@H](C)O)C(=O)N[C@@H](CCCNC(=N)N)C(=O)N[C@@H](C)C(=O)N[C@@H](CCCCN)C(=O)N[C@@H](CC(=O)O)C(=O)N[C@@H](Cc1ccccc1)C(=O)N[C@H](C(=O)N[C@@H](CCC(=O)O)C(=O)N[C@@H](Cc1c[nH]c2ccccc12)C(=O)N[C@@H](CC(C)C)C(=O)N[C@@H](CC(C)C)C(=O)N[C@@H](CO)C(=O)N[C@@H](C)C(N)=O)[C@@H](C)CC)C(=O)O [Compound 18] (HELM PEPTIDE1{H.S.H.G.T.F.T.S.D.Y.S.K.Y.L.D.E.K.R.A.K.D.F.I.E.W.L.L.S.A.[am]}|PEPTIDE2{[CCCCCCCCCCCCCCCC(=O)[*:2]].[gGlu]}$PEPTIDE1,PEPTIDE2,17:R3-2:R2$$$V2.0)
